The term EC50 denotes the concentration giving half of the maximal effect. A lower EC50 goes with an effect from little substance. By IC50 is commonly meant the point on the concentration scale where inhibition reaches its midpoint.

The structures appear in SMILES notation.

Experiment [1] has as its system HuH-7 hepatoma cells. As to the kind of experiment: In vitro cell proliferation assay (CellTiter-Glo, CTG), HuH-7. Format: cell-based. Particulars: HuH-7 cells. As to the method: (§1) In Vitro Cell Proliferation Assay of FGFR4 (CellTiter-Glo Luminescent Cell Viability Assay, CTG Assay)
(§2) Hep 3B hepatoma cells were purchased from Cell Resource Center of Peking Union College, and HuH-7 hepatoma cells were purchased from Shanghai Biological Technology Co., Ltd. enzyme research. The cells were prepared at a concentration of 3×10^4/mL, which was then added with 100 μL to each well of a 96-well transparent flat-bottom black-walled plate to make 3000 cells per well. Incubate overnight at 37° C. in 5% CO2 incubator. Dilute a compound and add it to the wells having the cells, then add cell culture medium to 200 μL per well. Put in CO2 incubator for incubation. After 96 hours, 100 μL of culture medium was removed from each well, 100 μL of CTG was added, and the 96-well plate was placed on a shaker for 10 minutes, and placed in the shade at room temperature for 45 minutes. Data was read out by SoftMax Pro i3X Microplate Reader of MD, analyzed by the software GraphPad Prism 5.0, and S-shaped dose-response curve was drawn, then the EC50 values were calculated.
(In ATP-based viability assays light output follows the ATP content of the culture.)

The subject of experiment [2] is Hep 3B hepatoma cells. Put plainly: In vitro cell proliferation assay (CellTiter-Glo, CTG), Hep 3B. Particulars: Hep 3B cells. Format: cell-based, human. Here is the method:
as §1, §2

Experiment [3] addresses FGFR4 (Homo sapiens, UniProt P22455). As to the kind of experiment: In vitro biochemical kinase analysis of FGFR4 (HTRF KinEASE-TK). As to conditions: HTRF kinase assay. As to the method:
In Vitro Biochemical Kinase Analysis of FGFR4
FGFR4 protein kinase detection kit was purchased from Cisbio (HTRF KinEASE-TK kit). Prepare 1× kinase reaction buffer. Transfer 10 nL of a diluted compound to each well of a reaction plate (784075, Greiner) with an Echo 550, and seal the plate with sealing film. The reaction plate was centrifuged at 1000 g for 1 minute. Prepare 2×FGFR4 using 1× kinase reaction buffer, add 5 μL of kinase to each well of the reaction plate, seal the plate, centrifuge at 1000 g for 30 seconds, and incubate it at room temperature for 10 minutes. Prepare a mixture of 2×TK-substrate-biotin and ATP using 1× kinase reaction buffer, add 5 μL of TK-substrate-biotin/ATP mixture to the reaction plate, seal the plate with sealing film, centrifuge at 1000 g for 30 seconds, and react at room temperature for 40 minutes. Prepare 2×Sa-XL 665 and TK-antibody-Cryptate mixture using HTRF detection buffer, add 10 μL Sa-XL 665 and TK-antibody-Cryptate mixture to each well, centrifuge at 1000 g for 30 seconds, and react at room temperature for 1 hour. Envision 2104 read fluorescence signals at 615 nm (Cryptate) and at 665 nm (XL665). IC50 of the compound was calculated using the GraphPad nonlinear fitting formula.
(In general: TR-FRET usually uses a lanthanide donor and a delayed reading to cut background.)

Sequence of FGFR4 (P22455 22-802): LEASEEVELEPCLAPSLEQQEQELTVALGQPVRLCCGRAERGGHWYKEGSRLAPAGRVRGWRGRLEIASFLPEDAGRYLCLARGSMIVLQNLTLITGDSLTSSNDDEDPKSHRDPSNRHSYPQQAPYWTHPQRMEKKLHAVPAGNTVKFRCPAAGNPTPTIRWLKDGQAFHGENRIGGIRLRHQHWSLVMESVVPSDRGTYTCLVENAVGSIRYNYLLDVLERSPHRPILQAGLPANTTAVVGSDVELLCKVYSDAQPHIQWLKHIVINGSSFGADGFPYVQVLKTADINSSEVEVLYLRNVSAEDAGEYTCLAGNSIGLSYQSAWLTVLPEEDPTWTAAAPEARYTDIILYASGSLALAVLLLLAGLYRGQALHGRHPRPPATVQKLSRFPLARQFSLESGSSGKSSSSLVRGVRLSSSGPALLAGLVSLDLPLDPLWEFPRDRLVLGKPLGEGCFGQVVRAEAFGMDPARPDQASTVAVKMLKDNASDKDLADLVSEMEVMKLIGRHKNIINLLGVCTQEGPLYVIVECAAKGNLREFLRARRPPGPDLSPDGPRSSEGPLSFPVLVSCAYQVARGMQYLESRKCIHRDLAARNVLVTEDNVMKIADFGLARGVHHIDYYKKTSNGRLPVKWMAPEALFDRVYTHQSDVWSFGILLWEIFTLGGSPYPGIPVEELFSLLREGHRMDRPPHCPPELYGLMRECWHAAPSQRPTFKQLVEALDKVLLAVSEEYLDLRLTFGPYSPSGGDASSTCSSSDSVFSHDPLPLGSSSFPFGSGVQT

As for `COCCNc1cc(NC(=O)N2c3nc(C=O)ccc3C3(OC)CC2C3)ncc1C#N` [Compound 3], the EC50 turned out to be 42 nM in experiment [1] (Homo sapiens, Huh-7, 96 h) and 13.4 nM in experiment [2] (Homo sapiens, Hep3B, 96 h). In experiment [3], this compound gave an IC50 of 1.6 nM.

For the compound `COCCNc1cc(NC(=O)N2c3nc(C=O)c(CN4CCCCOC4=O)cc3C3(F)CC2C3)ncc1C#N` [Compound 14], the EC50 stood at 28 nM in experiment [1] (Homo sapiens, Huh-7, 96 h) and 7.8 nM in experiment [2] (Homo sapiens, Hep3B, 96 h). The compound also showed a half-inhibitory concentration (IC50) in experiment [3] of 3.3 nM.

For `CO[C@@H]1CCC[C@H]1Nc1cc(NC(=O)N2c3nc(C=O)c(CN4CCN(C)CC4=O)cc3C3CC2C3)ncc1C#N` (relative stereo) [Compound 26, N-(5-cyano-4-(((trans)-2-methoxycyclopentyl)amino)pyridin-2-yl)-7-formyl-6-((4-methyl-2-oxopiperazin-1-yl)methyl)-3,4-dihydro-2,4-methylene-1,8-naphthyridine-1(2H)-carboxamide], the EC50 in experiment [1] (Homo sapiens, Huh-7, 96 h) was found to be 1 nM; in experiment [2] (Homo sapiens, Hep3B, 96 h), 1.3 nM. This compound displayed an IC50 in experiment [3] of 0.3 nM.

With `COCCNc1cc(NC(=O)N2c3nc(C=O)c(CN(C)C(=O)CN(C)C)cc3C3(F)CC2C3)ncc1C#N` [Compound 8], the EC50 in experiment [1] (Homo sapiens, Huh-7, 96 h) was determined as 28 nM; in experiment [2] (Homo sapiens, Hep3B, 96 h), 11.8 nM. Besides, in experiment [3], the IC50 was 2.6 nM.

Turning to `CO[C@@H]1CCC[C@H]1Nc1cc(NC(=O)N2c3nc(C=O)ccc3C3(F)CC2C3)ncc1C#N` (relative stereo) [Compound 19, N-(5-cyano-4-(((trans)-2-methoxycyclopentyl)amino)pyridin-2-yl)-4-fluoro-7-formyl-3,4-dihydro-2,4-methylene-1,8-naphthyridine-1(2H)-carboxamide], the EC50 in experiment [1] (Homo sapiens, Huh-7, 96 h) amounted to 31.6 nM; in experiment [2] (Homo sapiens, Hep3B, 96 h), 6 nM. Moreover, in experiment [3], 0.8 nM corresponded to half-maximal inhibition (IC50).

Turning to `COCCNc1cc(NC(=O)N2c3nc(C=O)ccc3C3(F)CC2C3)ncc1C#N` [Compound 1, N-(5-cyano-4-((2-methoxyethyl)amino)pyridin-2-yl)-4-fluoro-7-formyl-3,4-dihydro-2,4-methylene-1,8-naphthyridine-1(2H)-carboxamide], the EC50 was determined as 62 nM in experiment [1] (Homo sapiens, Huh-7, 96 h) and 15.1 nM in experiment [2] (Homo sapiens, Hep3B, 96 h). In addition, the half-inhibitory concentration (IC50) in experiment [3] was determined as 0.4 nM.

With `COC[C@@H](C)Nc1cc(NC(=O)N2c3nc(C=O)c(CN4CCN(C)CC4=O)cc3C3CC2C3)ncc1C#N` [Compound 24], the EC50 in experiment [1] (Homo sapiens, Huh-7, 96 h) is 1.7 nM; in experiment [2] (Homo sapiens, Hep3B, 96 h), 1.4 nM. In experiment [3], this compound displayed a concentration for half-maximal inhibition (IC50) of 0.6 nM.

For the compound `CCS(=O)(=O)NC12CC(C1)N(C(=O)Nc1cc(NCCOC)c(C#N)cn1)c1nc(C=O)ccc12` [Compound 38, N-(5-cyano-4-((2-methoxyethyl)amino)pyridin-2-yl)-4-ethanesulfonamido-7-formyl-3,4-dihydro-2,4-methylene-1,8-naphthyridine-1(2H)-carboxamide], the EC50 stood at 19.2 nM in experiment [1] (Homo sapiens, Huh-7, 96 h) and 9.5 nM in experiment [2] (Homo sapiens, Hep3B, 96 h). Further, the IC50 in experiment [3] stood at 2.3 nM.

Turning to `COC1CCCC1Nc1cc(NC(=O)N2c3nc(C=O)c(CN4CCN(C)CC4=O)cc3C3(F)CC2C3)ncc1C#N` (single isomer, unassigned) [Compound 12-P2, N-(5-cyano-4-(((cis)-2-methoxycyclopentyl)amino)pyridin-2-yl)-4-fluoro-7-formyl-64(4-methyl-2-oxopiperazin-1-yl)methyl)-3,4-dihydro-2,4-methylene-1,8-naphthyridine-1(2H)-carboxamide], the EC50 came to 95.2 nM in experiment [1] (96 hours) and 39 nM in experiment [2] (96 hours). The compound also registered an IC50 in experiment [3] of 10.9 nM.

For `COCCNc1cc(NC(=O)N2c3nc(C=O)ccc3C3(NC(=O)C4CCN(C)C4)CC2C3)ncc1C#N` (stereo not drawn) [Compound 40], the EC50 in experiment [1] (Homo sapiens, Huh-7, 96 h) turned out to be 39.6 nM; in experiment [2] (Homo sapiens, Hep3B, 96 h), 24.9 nM. The compound also registered a 50% inhibitory concentration (IC50) in experiment [3] of 3.4 nM.

For `COCCNc1cc(NC(=O)N2c3nc(C=O)ccc3C3(NC(=O)C4CCN(C)CC4)CC2C3)ncc1C#N` [Compound 31], the concentration for a half-maximal effect (EC50) in experiment [1] (Homo sapiens, Huh-7, 96 h) is 4.5 nM; in experiment [2] (Homo sapiens, Hep3B, 96 h), 5.5 nM. This compound came in with a half-inhibitory concentration (IC50) in experiment [3] of 1.1 nM.

On to `COC1CCCC1Nc1cc(NC(=O)N2c3nc(C=O)c(CN4CCN(C)CC4=O)cc3C3(F)CC2C3)ncc1C#N` (single isomer, unassigned) [Compound 12-P1, N-(5-cyano-4-(((cis)-2-methoxycyclopentyl)amino)pyridin-2-yl)-4-fluoro-7-formyl-64(4-methyl-2-oxopiperazin-1-yl)methyl)-3,4-dihydro-2,4-methylene-1,8-naphthyridine-1(2H)-carboxamide], for which the EC50 was found to be 0.9 nM in experiment [1] (96 hours) and 8.6 nM in experiment [2] (96 hours). In experiment [3], this compound registered an IC50 of 2.1 nM.

For `COC[C@@H](C)Nc1cc(NC(=O)N2c3nc(C=O)c(CN4CCN(C)CC4=O)cc3C3(F)CC2C3)ncc1C#N` [Compound 6, (R)—N-(5-cyano-4-((1-methoxyprop-2-yl)amino)pyridin-2-yl)-4-fluoro-7-formyl-6-((4-methyl-2-oxopiperazin-1-yl)methyl)-3,4-dihydro-2,4-methylene-1,8-naphthyridine-1(2H)-carboxamide], the EC50 in experiment [1] (Homo sapiens, Huh-7, 96 h) turned out to be 5.9 nM; in experiment [2] (Homo sapiens, Hep3B, 96 h), 3.3 nM. In experiment [3], this compound showed an IC50 of 2.1 nM.

Consider `COCCNc1cc(NC(=O)N2c3nc(C=O)ccc3C3(O)CC2C3)ncc1C#N` [Compound 2, N-(5-cyano-4-((2-methoxyethyl)amino)pyridin-2-yl)-7-formyl-4-hydroxy-3,4-dihydro-2,4-methylene-1,8-naphthyridine-1(2H)-carboxamide], for which the EC50 in experiment [1] (Homo sapiens, Huh-7, 96 h) worked out at 52 nM; in experiment [2] (Homo sapiens, Hep3B, 96 h) it was 8.1 nM. In experiment [3], this compound yielded an IC50 of 2.2 nM.

With `COCCNc1cc(NC(=O)N2c3nc(C=O)c(CN4CCOCC4=O)cc3C3CC2C3)ncc1C#N` [Compound 27, N-(5-cyano-4-((2-methoxyethyl)amino)pyridin-2-yl)-7-formyl-6-((3-oxomorpholinyl)methyl)-3,4-dihydro-2,4-methylene-1,8-naphthyridine-1(2H)-carboxamide], the EC50 in experiment [1] (Homo sapiens, Huh-7, 96 h) was 9.7 nM; in experiment [2] (Homo sapiens, Hep3B, 96 h) it was 6.7 nM. In experiment [3], this compound showed an IC50 of 1.4 nM.

Take `COC1CCCC1Nc1cc(NC(=O)N2c3nc(C=O)c(CN4CCN(C)CC4=O)cc3C3(F)CC2C3)ncc1C#N` (single isomer, unassigned) [Compound 11-P1, N-(5-cyano-4-(((trans)-2-methoxycyclopentyl)amino)pyridin-2-yl)-4-fluoro-7-formyl-64(4-methyl-2-oxopiperazin-1-yl)methyl)-3,4-dihydro-2,4-methylene-1,8-naphthyridine-1(2H)-carboxamide]: the EC50 in experiment [1] (96 hours) amounted to 0.2 nM; in experiment [2] (96 hours), 5.6 nM. Moreover, in experiment [3], the IC50 came out at 1.3 nM.

With `COCCNc1cc(NC(=O)N2c3nc(C=O)c(CN4CCCCOC4=O)cc3C3CC2C3)ncc1C#N` [Compound 28], the EC50 stood at 6.9 nM in experiment [1] (Homo sapiens, Huh-7, 96 h) and 7.2 nM in experiment [2] (Homo sapiens, Hep3B, 96 h). For the same compound, inhibition in experiment [3] was half-maximal at 1.1 nM (IC50).

`COCCNc1cc(NC(=O)N2c3nc(C=O)c(CN4CCN(C)CC4)cc3C3(F)CC2C3)ncc1C#N` [Compound 7]: the EC50 was over 1000 nM in experiment [1] (Homo sapiens, Huh-7, 96 h) and 669 nM in experiment [2] (Homo sapiens, Hep3B, 96 h). Further, the IC50 in experiment [3] amounted to 5.1 nM.

With `CN1CCN(Cc2cc3c(nc2C=O)N(C(=O)Nc2cc(NC4CCOC4)c(C#N)cn2)C2CC3(F)C2)C(=O)C1` (stereo not drawn) [Compound 10, N-(5-cyano-4-((tetrahydrofuran-3-yl)amino)pyridin-2-yl)-4-fluoro-7-formyl-6-((4-methyl-2-oxopiperazin-1-yl)methyl)-3,4-dihydro-2,4-methylene-1,8-naphthyridine-1(2H)-carboxamide], the EC50 in experiment [1] (Homo sapiens, Huh-7, 96 h) was determined as 20 nM; in experiment [2] (Homo sapiens, Hep3B, 96 h) it was 10 nM. The compound also had a 50% inhibitory concentration (IC50) in experiment [3] of 3.8 nM.

These data come from US12344611B2, “Bridged cycloformylpyridine derivatives and uses thereof” (BroadenBio Co., Ltd., priority 2019, dated 2025).
